From ChEMBL document CHEMBL3507680, “University of Dundee, Gates Library screen for HepG2 cell viability”

Assay: Human HepG2 cell viability assay in 384 well format
Assay type: toxicity, cell-based
Set-up: dose 125 nL, time 70.5 hour; concentration not given beside the values
Conditions: HepG2 cells, read-out: Inhibition

| SMILES | cytotoxicity at 70.5 h |
| --- | --- |
| O=C(CSCC1CC1)N1CCCC(c2nccn2Cc2cccnc2)C1 (stereo not drawn) | -9.29% |
| CCc1ccc(CN2CCN(c3ccc(C#N)cc3)C(=O)C2)nc1 | -10.5% |
| CC(C)=CCN1CCN(S(=O)(=O)c2cn(C)cn2)[C@H]2CS(=O)(=O)C[C@H]21 | 48.8% |
| COCCn1ccc(=O)c(OCC(=O)Nc2ccccc2)c1C | -10.1% |
| NC(=O)COc1ccc(C(=O)N2CCCC(n3ccnc3)C2)cc1 (stereo not drawn) | -3% |
| CC(C)c1cc(C(=O)NCCn2nnc3ccccc32)no1 | 41.3% |
| CC(CN1CC[C@@H]2CCCC[C@@H]2C1)n1cnc2ccccc21 (stereo partly drawn) | 21.4% |
| Cc1cc(C)n(CC2CN(c3ncnc4[nH]ccc34)CCO2)n1 (stereo not drawn) | 1.04% |
| CCc1nc(CCn2ccc3nc(OC)c(C#N)cc3c2=O)no1 | -4.1% |
| CCN(Cc1noc(C)n1)C(=O)C(c1cccc(C)c1)N(C)C (stereo not drawn) | 10.7% |
| CCc1noc(CNc2ccc(C(=O)N3CCCC3)cc2C)n1 | 10.5% |
| Cc1cccc2[nH]c(C3CCN(C(=O)c4cnc[nH]c4=O)CC3)nc12 | -1.84% |
| CNC(=O)[C@H]1C[C@@H]2CN(C(=O)c3cnc(C)cn3)C[C@@H]2N1C | -8.55% |
| Cc1cc(C(=O)N2CCC(Nc3cccnn3)CC2)no1 | 11.5% |
| CC(C)n1cnnc1CN(C)Cc1cnc(-c2ccccn2)nc1 | -5.94% |
| CCc1ncnc2c1CCN(C(=O)N1CCCC1)CC2 | 20.9% |
| CCOC1CCN(C(=O)NCc2ccc(C(=O)N(C)C(C)C)cc2)CC1 | -18.5% |
| CC(=O)NCCN1CCC(c2cccs2)CC1 | 0.738% |
| CCOc1ccccc1C(=O)N1CCn2c(nnc2C(F)(F)F)C1 | -1.86% |
| CC(C)N(C)Cc1ncn2c1CN(S(=O)(=O)c1cccs1)CCC2 | 13% |
| CCC(C)NC(=O)CCNC(=O)c1c[nH]cc1-c1cccc(OC)c1 (stereo not drawn) | 2.46% |
| Cc1nn(C)c(Oc2ccc(Cl)cc2)c1CN1CCC(CN)C1 (stereo not drawn) | -8.55% |
| N#Cc1cnc(NCc2ccc(C(=O)NC3CC3)cc2)c(Cl)c1 | -4.64% |

| SMILES | cytotoxicity at 70.5 h |
| --- | --- |
| CN1CCN(Cc2nc3ccccc3[nH]2)[C@H]2CS(=O)(=O)C[C@H]21 | -10.2% |
| Nc1cc(C(=O)N2CCCC(C(=O)CCc3ccccc3)C2)ccn1 (stereo not drawn) | -3.17% |
| N#Cc1ccc(CNC(=O)NC2CCN(CC(F)F)CC2)cc1 | -9.49% |
| O=C(CCc1ccc(Cl)cc1)N[C@@H]1CC[C@@H](O)[C@@H]1O | -6.03% |
| COc1cc(C)nc(N2CCN(C(=O)c3ccc[nH]3)CC2)n1 | -1.4% |
| Cn1cccc1C(=O)N1CCc2ncnc(N3CCOCC3)c2CC1 | -9.14% |
| COc1cccc(CN2CCC(Cc3cnc(CN(C)C)cn3)CC2)c1 | 22.5% |
| CS(=O)(=O)NC[C@@H]1OC[C@H]2CN(C(=O)c3ccccn3)CC[C@H]21 | -3.81% |
| CC(CN1CCOCC1)NC(=O)Nc1cccnc1-n1cccn1 (stereo not drawn) | -14% |
| CCN(C)c1ncnc2c1CCN(C(=O)[C@H]1CCCO1)CC2 | -9.23% |
| CC(C(=O)NCc1ccnc(N2CCOCC2)c1)n1cccn1 (stereo not drawn) | -10.1% |
| CCN(CC)c1ncccc1CNC(=O)c1cc2nc(C)cc(C)n2n1 | -0.33% |
| CS(=O)(=O)NCc1nnc2n1CCN(Cc1nccs1)C2 | 5.64% |
| CC(NC(=O)NCCCN1CCCC1=O)c1nncn1C (stereo not drawn) | -9.31% |
| N#Cc1ccnc(SCC2CN=C(N3CCOCC3)S2)c1 (stereo not drawn) | 2.81% |
| CCCc1cc(C(=O)N(Cc2cccnc2)Cc2cccnc2)[nH]n1 | -7.25% |
| Cc1n[nH]c(C2CN(Cc3ncc(C(C)C)o3)CCO2)n1 (stereo not drawn) | 0.362% |
| CN(C)c1ccc(C(=O)N2CCN(Cc3cscn3)CC2)cc1F | -8.39% |
| COc1ncccc1CNC(=O)NCCNC(=O)c1ccco1 | 0.312% |
| Cc1ccc(C(=O)Nc2ccccc2F)n1C | -11.5% |
| O=C(NCC(O)c1ccc(Cl)c(F)c1)NC1CC=CC1 (stereo not drawn) | -3.83% |
| Cc1ccnc(C(NC(=O)c2ncoc2C)C2CC2)n1 (stereo not drawn) | 16.5% |
| CCN1CC(O)CN(C(=O)c2ccc(SC)cc2)CC1=O (stereo not drawn) | -4.25% |

| SMILES | cytotoxicity at 70.5 h |
| --- | --- |
| CCNC(=O)[C@@H]1CCCN1C1(C(=O)NC)CCCCC1 | 4.64% |
| Cc1cc(C)n(CC2CN(CC(=O)Nc3c(C)n[nH]c3C)CCO2)n1 (stereo not drawn) | -8.05% |
| CCc1cc(NCCCOC2CCN(C)CC2)ncn1 | -15.3% |
| Cc1ccc(C(=O)N2CCN(CCC(C)(C)C)CC2)c(=O)[nH]1 | -6.54% |
| Cc1ccc(C(=O)N2CCC3(CCC(=O)N(CCN(C)C)C3)CC2)nc1 | -3.11% |
| Cc1cc(N(C)C)nc(C2CCCNC2)n1 (stereo not drawn) | -1.07% |
| CC(C)c1ccc(OCCC(=O)N2CCCC(C(N)=O)C2)cc1 (stereo not drawn) | -5.32% |
| CNC(=O)CN(C)c1nc(-c2ccncc2)nc2c1CCN(C(C)=O)C2 | -6.78% |
| Cc1noc(C)c1CN1CCc2ncnc(-c3ccncc3)c2CC1 | 42.6% |
| O=C(Nc1cccc(F)c1)C1CCN(Cc2noc(C3CC3)n2)CC1 | -13.9% |
| CC(C)NC(=O)c1csc(NC2CC2)n1 | 0.174% |
| O=C(Cn1ncc2ccccc21)Nc1ccnn1CC1CCOC1 (stereo not drawn) | -23.1% |
| CN(C)C(=O)N1CCCC2(CCN(c3ccsc3)C2=O)C1 (stereo not drawn) | -6.16% |
| O=C(c1ccc(-c2nc[nH]n2)cc1)N1CC[C@H](CO)[C@@H](O)C1 | -10.8% |
| CCC[C@H]1CN(S(C)(=O)=O)C[C@@H]1NC(=O)Cc1ccc(F)cc1C | -1.4% |
| CO[C@H]1[C@@H]2CC[C@H]1CN(c1nc(C)nc3sccc13)C2 | 6.45% |
| CC(C)CN1CCN(S(=O)(=O)c2cn(C)cn2)Cc2cccnc21 | -10.6% |
| CN1CCOCC2(CCCN(C(=O)c3cnccn3)C2)C1 (stereo not drawn) | 0.574% |
| COc1cc(CNC2CCCN(c3cccnn3)C2)cc2c1OCO2 (stereo not drawn) | -3.66% |
| Cc1cccc(CN2CCC3(CCC(C(=O)N(C)C)O3)CC2)n1 (stereo not drawn) | -9.32% |
| Cc1ccc(OC2(C(=O)O)CCN(C/C=C/c3ccco3)CC2)cn1 | -5.05% |
| CCc1nc(CC(=O)N2CCC(C(=O)N(CC)CC)CC2)cs1 | -11.2% |
| CC(=O)N1CC2(CCN(Cc3ccc(Cl)cc3)C2)Cc2ccccc21 (stereo not drawn) | 5.14% |

| SMILES | cytotoxicity at 70.5 h |
| --- | --- |
| CCC1CCCN(S(=O)(=O)c2cnn(C)c2)C1 (stereo not drawn) | -0.41% |
| COCCC(=O)N1CCCN(Cc2nccn2C(C)C)CC1 | -1.06% |
| CCN(Cc1ccco1)C(C)c1nc(C)no1 (stereo not drawn) | -2.63% |
| COC(=O)CCCNC(=O)COc1ccccc1C(F)(F)F | -6.88% |
| O=C(Cc1ccc2c(c1)OCC2)Nc1nc[nH]n1 | -8.03% |
| CCN(CC)C(=O)c1ccc(NC(=O)CNc2ccc(F)cc2Cl)cc1 | -6.34% |
| Cc1cccc(CN2C(=O)CC[C@@H]3[C@H]2CCN3Cc2ccc(C)s2)n1 | -18.1% |
| O=C(Nc1ccccc1)[C@H]1O[C@H](CCN2CCNCC2)CC[C@@H]1O | 0.346% |
| CCOc1ccccc1C(CC(=O)N(C)C)NC(C)=O (stereo not drawn) | -0.953% |
| CCN1CCN(CCNC(=O)c2sc(C)nc2C)CC1 | -5.81% |
| Cc1cc(C)n(CC2CN(CC(=O)Nc3cccnc3)CCO2)n1 (stereo not drawn) | -4.57% |
| Fc1ccc2c(c1)CCC2NCc1ccc(N2CCOCC2)cc1 (stereo not drawn) | 7.55% |
| CC(=O)N1CCC(CCNC(C)c2cc(F)cc(F)c2)CC1 (stereo not drawn) | -3.81% |
| CC(=O)N1CCC(c2cccc(NC3CCOCC3)n2)CC1 | -1.75% |
| CCOCC1CN(S(=O)(=O)C2CC2)Cc2ncn(CC3CC3)c21 (stereo not drawn) | -4.92% |
| O=C1CCc2cc(C(=O)NCc3ccc(-n4cncn4)nc3)ccc2N1 | -0.0283% |
| COc1ccc(CCn2cnnc2[S+](C)[O-])cc1 (stereo not drawn) | -10% |
| CCC(C(=O)NCc1ccncc1)N(c1ccc(F)cc1)S(C)(=O)=O (stereo not drawn) | -0.482% |
| CCS(=O)(=O)N1CCc2cc(C(=O)NC)c(N(C)C)nc2CC1 | 5.95% |
| CN1CCC(c2cccc(NCc3ccncc3)n2)CC1 | -2.85% |
| Cc1nc(COCc2nc3c(o2)CN(C(=O)c2ccc[nH]2)C3)cs1 | -3.29% |
| Cc1ccc(F)c(NC(=O)CCC(=O)N(C)Cc2cc(C3CC3)[nH]n2)c1 | -8.19% |
| Cc1cc(C2CCCN(C(=O)CCc3cscn3)C2)n[nH]1 (stereo not drawn) | -19.6% |

| SMILES | cytotoxicity at 70.5 h |
| --- | --- |
| CN(C)Cc1csc(-c2nccn2CCc2cccnc2)c1 | -8% |
| CC(=O)N1CCN(C(=O)C(C)OCC(F)(F)F)CC1 (stereo not drawn) | 33.2% |
| COc1cccnc1NC(=O)COc1c(C)cccc1C | 18.3% |
| COCCn1ccnc1C1CCCN(c2ncnc3c(C)csc23)C1 (stereo not drawn) | 23.8% |
| CCCN1CCC(NCc2cccc(CN3CCOC(C)C3)c2)CC1 (stereo not drawn) | 27.7% |
| Cc1nc(C)n(CC2CCCN(CCOc3ccccc3F)C2)n1 (stereo not drawn) | 28.7% |
| CN(CC(=O)N1CCCN(Cc2cscn2)CC1)c1cnccn1 | -5.45% |
| CCN(C(=O)c1cc(C)nc2ccccc12)C1CC(=O)NC1=O (stereo not drawn) | -1.78% |
| COc1cc(CN2C[C@H](OC)[C@]3(CCCO3)C2)ccc1F | 19.1% |
| Cn1ccc(N2CCCC(NC(=O)c3ccc(Cl)o3)C2=O)n1 (stereo not drawn) | -10.2% |
| Cn1c(C(=O)Nc2nc[nH]n2)cc2ccccc21 | 10.4% |
| Cc1cnc(CN(C)C2CCN(CC(=O)Nc3nccs3)C2)o1 (stereo not drawn) | -5.94% |
| O=C(CC1=CSC2=NCCCN12)N1CCCCC1c1cccc(F)c1 (stereo not drawn) | 20.1% |
| COCCC(=O)N1C[C@@H](c2cccc(OC)c2)[C@@]2(CCCCC(=O)N2)C1 | -14.8% |
| CS(=O)(=O)CCSCc1ccc(Br)c(F)c1 | -1.55% |
| OCCN(Cc1nc(-c2ccc3c(c2)OCO3)no1)Cc1cccs1 | -16.8% |
| CCCN(C(=O)CS(=O)(=O)c1ccccc1)c1cccc(C)c1 | -5.44% |
| CC(NC(=O)CCCc1ccc(Cl)cc1)c1nnn[nH]1 (stereo not drawn) | -11.1% |
| CCc1nc(CN2CCN(C(=O)c3cnccn3)CC2)cs1 | -5.66% |
| CN1CCC(n2nc(Cc3cccs3)nc2-c2ccncc2)CC1 | 2.89% |
| O=C(NC1CC1)C1CCN(Cn2nc(-c3ccccc3)oc2=O)CC1 | 25.1% |
